The record followed here is patent EP1379135B1, “FORMULATIONS COMPRISING ENTRAPPED ACTIVE INGREDIENTS AND USES THEREOF” (THE SCRIPPS RESEARCH INSTITUTE, priority 2001, dated 2002).

In experiment [1] the test system is IL-1β induced NO production in normal human articular chondrocytes. Kind of experiment: IL-1β induced NO production in cultured chondrocytes (NO2 accumulation, Griess reaction). Format: cell-based. The protocol:
Chondrocytes were isolated from the cartilage by collagenase digestion and maintained in continuous monolayer cultures in DMEM containing 10% fetal bovine serum (FBS). Cell viability after chondrocyte isolation by collagenase digestion of normal cartilage was >95%. This level was maintained for at least 96 hrs post mortem. […] Experiments reported were performed with primary or first passage cells.
(§1) Chondrocytes were plated at 40,000 cells/well in 96-well plates in the presence of 1 % FBS. After 48 h, the medium was changed, and the cells were stimulated with IL-1β (Sigma) at a concentration of 5 ng/ml for 24 h. NO production was detected as NO2 accumulation in the culture supernatants by the Griess reaction as described elsewhere (Heval et al., (1994) Methods Enzymol. 233:250). IL-6 in the culture supernatants was measured by ELISA (R&D Systems, Minneapolis, MN) in accordance with the supplier's protocol.
Background: The Griess reaction detects nitrite, a stable product of nitric oxide.

Experiment [2] deals with COX-2 mRNA. Nature of the experiment: COX-2 mRNA expression in IL-1β stimulated chondrocytes (Northern Blot). The format is cell-based, human. How it is done: Total RNA was isolated from 2 x 10^6 chondrocytes stimulated using the STAT-60 reagent (Tel-Test, Friendswood, TX). RNA for each sample was quantified photometrically, and 5 µg was separated on 1.2% agarose, 6% formaldehyde gels. After electrophoresis, the gels were photographed, and the RNA was transferred onto HybondN nylon membranes (BRL, Baithesburg, MD) by capillary blotting. Membranes were air-dried and incubated for 2 hrs at 80°C. Prehybridization was done for 2 hrs at 60°C in 5 x SCC, 1 mM EDTA, 0.2% SDS and 5 x Denhardt solution. Radio-labeled probe was added and hybridization was carried out overnight at 60°C. After hybridization, the filters were rinsed twice in 2 x SSC, 0.1% SDS, washed once in 2 x SCC, 0.1 % SDS at 60°C and once in 0.2 x SCC, 0.1 % SDS at 60°C. The membranes were covered with plastic wrap and exposed with an intensifying screen for 12 hr at -70°C. The probes used for the hybridization were prepared as described earlier (Geng et al., (1993) J. Immunol. 151:6692; Geller et al., (1993) Proc. Natl. Acad. Sci. USA 90:3491).

In experiment [3] the test system is IL-6. Kind of experiment: IL-6 production in IL-1β stimulated chondrocytes (ELISA). The format is cell-based, human. The settings on record: p < 0.001. How it is done: as §1
In experiment [4] the test system is NF-κB. Nature of the experiment: IL-1β-induced nuclear translocation of NF-κB (gel shift of nuclear extracts). The format is cell-based, human. The protocol: Nuclear protein extracts were prepared as follows: 2 x 10^6 chondrocytes were stimulated as indicated. The cells were harvested by trypsinization, washed once with ice cold PBS and lysed in 10 mM Tris-HCl buffer pH 7.5 containing 2 mM MgCl2, 140 mM NaCl, 0.5 mM DTT, 0.05% Triton X-100, 0.5 mM PMSF, leupeptin 1 µg/ml and aprotinin 1 µg/ml. The nuclei were spun down, resuspended in 20 mM HEPES buffer pH 7.9, containing 25% glycerol, 420 mM NaCl, 1.5 mM MgCl2, 0.2 mM EDTA, 0.5 mM DTT, 0.5 mM PMSF, leupeptin 1 µg/ml and aprotinin 1 µg/ml, and rotated at 4°C for 30 minutes. After removal of the nuclear debris by centrifugation, the protein concentration of the lysate was determined by Bradford assay. Equal amounts of the nuclear extracts (2 µg) were incubated for 15 minutes at room temperature with poly-(dI-dC)poly-(dI-dC) (0.1 mg/ml), BSA (1 mg/ml), 1 x […] counts of double-stranded radiolabeled oligodeoxynucleotide containing the NF-κB consensus DNA binding site (sequence: 5'-[…]-3') in 20 mM HEPES buffer pH 7.9 containing 10% glycerol, 420 mM NaCl, 1.5 mM MgCl2, 0.2 mM EDTA, 0.5 mM DTT and 0.5 mM PMSF. For competition experiments, unlabeled NF-κB oligodeoxynucleotide or oligodeoxynucleotide containing the Oct-1 consensus sequence were added at 100-fold molar excess to the binding reactions 10 minutes prior to the addition of radiolabeled NFκB oligodeoxynucleotide. […]
On the technique in general: Mobility shift assays separate free from complexed probe on a gel.

Experiment [5] has as its system JNK. Nature of the experiment: IL-1β induced MAP kinase activation, JNK (phospho Western blot). The format is cell-based, human. The settings on record: induced by IL-1β. The protocol: (§2) Whole cell extracts were prepared from 3 x 10^6 chondrocytes stimulated as described above by lysing the cells on the plate with ice cold lysis buffer (10 mM TrisHCl pH 7.6, 158 mM NaCl, 1 mM EDTA, 0.1% SDS, 1% Triton X-100, leupeptin […], aprotinin 1µg/ml, and 0.5 mM PMSF), which was added immediately before use. The lysates were transferred to Eppendorf tubes and centrifuged at 20,000 g for 30 min at 4 °C. The supernatants were transferred into fresh tubes, and the protein concentration was determined by Bradford assay. Similar amounts of protein were separated by 10% SDS PAGE and transferred to a nitrocellulose filter (Schleicher & Schuell, Keene, NH) by electroblotting. The filter was blocked overnight in 5% milk powder/TBS-T solution and then further incubated with one of the following antibodies: anti-iNOS (C-19, Santa Cruz Biotechnology, Inc., Santa Cruz, CA), anti-COX-2 (Cayman Chemical, Ann Arbor, MI), anti-COX-1 (H-3, Santa Cruz Biotechnology, Inc.), anti-phospho-JNK (phosphoThr 183 /Tyr 185, New England Biolabs, Inc., Beverly, MA), anti-phospho-p38MAP (phospho-Thr […]/Tyr 182, New England Biolabs, Inc.) or anti-phospho-ERK (phosphoThr 180/Tyr 182, New England Biolabs, Inc.) for 2 hrs. […]
In general terms: Immunoblotting shows a protein as a band on a membrane.

Experiment [6] concerns p38. Nature of the experiment: IL-1β induced MAP kinase activation, p38 (phospho Western blot). Format: cell-based, human. The settings on record: induced by IL-1β. The protocol: as §2
Experiment [7] deals with hexosaminidase. Kind of experiment: IL-1β mediated increase in hexosaminidase secretion in chondrocytes. The format is cell-based, human.
Experiment [8] in a line: Induction of TGFα1 in chondrocytes with IL-1β. Format: cell-based, human. The following applies: together with IL-1β.

Entries after “also recorded” stand apart in the source; their conditions may differ. Where two headings read alike, the source gives them in different places.

By IC50 is commonly meant the concentration that gives 50% inhibition. `CC(=O)N[C@H]1C(O)O[C@H](CO)[C@@H](O)[C@@H]1O` (some centres unmarked) [GlcNAc, N-acetylglucosamine]: in experiment [1], the “NO production triggered by IL-1β” value is recorded as “suppressed NO production; also recorded: stronger inhibition of NO production than GA”, the “concentration of maximal inhibitory effect on NO production” value was found to be 20 mM and the “concentrations not effective in inhibiting NO production” value is “lower than 1 mM”. The IC50 in experiment [1] (Homo sapiens, Chondrocyte, IL-1β 5 ng/ml for 24 h, GlcNAc vs GA p < 0.01, read-out: IC50 (inhibition of NO production)) stood at 4.1 ± 1.3 mM. In addition, the “inhibitory activity on IL-1β induced NO production” value in experiment [1] (concentration of 10 mM) is listed as “demonstrated inhibitory activity”. Besides, in experiment [1] (listed as GIcNAc), the “NO production triggered by IL-1β” value was “measurably inhibited NO production in the lower millimolar range” and the “concentrations not effective in inhibiting NO production” value is given as “below 1 mM”. In addition, in experiment [2], the “expression of COX-2 mRNA” value is listed as “inhibited”. In addition, in experiment [3], the IL-6 production result is recorded as “inhibited”. Moreover, the “IL-1β-induced nuclear translocation of NF-κB” value in experiment [4] was “did not affect”. Besides, the “JNK MAP kinase activation” value in experiment [5] was “does not inhibit”. The “p38 MAP kinase activation” value in experiment [6] is reported as “does not inhibit”. Besides, in experiment [7], the “IL-1β mediated increase in hexosaminidase secretion” value is reported as “did not suppress”. In addition, the “induction of TGFα1” value in experiment [8] is “synergistic with IL-1β”.
